Measured values published in patent US9924712B2, “Liquid concentrate formulation containing a pyripyropene insecticide II” (BASF SE, priority 2012, dated 2018).

Assay: Dissolution and solvate precipitation of pyripyropene derivative I in propylene carbonate (Alkylene carbonate A)
Format: physicochemical

C[C@]1(COC(=O)C2CC2)[C@@H]2C[C@H](O)[C@@]3(C)Oc4cc(-c5cccnc5)oc(=O)c4[C@H](O)[C@@H]3[C@@]2(C)CC[C@@H]1OC(=O)C1CC1 [pyripyropene derivative I]
Appearance of solution on continued agitation (10 wt % and 20 wt % in propylene carbonate, after additional approximately 2 hours of agitation, precipitate crystalline by microscopy): started to turn cloudy
Time for complete dissolution (10 wt % and 20 wt % solutions in Alkylene carbonate A (propylene carbonate), with agitation, both cases): about 1 hour
